According to patent publication US7462472B2 (priority 2001, dated 2008):

Assays:
CaM = CaM (Homo sapiens, UniProt P0DP23, T111C/T35C); experiment: biochemical; type: binding
[1] = molecular target: CaM34/110-AEDANS/DAB, human CaM mutant [change]/[change] labeled with donor and acceptor (human) (UniProt P0DP23); experiment: fluorescence (FRET) titration of donor-acceptor labeled CaM34/110 with CyaA1-412

Sequence of CyaA1-412, adenylyl cyclase domain (amino acids 1-412) of CyaA (J7QLC0 1-412): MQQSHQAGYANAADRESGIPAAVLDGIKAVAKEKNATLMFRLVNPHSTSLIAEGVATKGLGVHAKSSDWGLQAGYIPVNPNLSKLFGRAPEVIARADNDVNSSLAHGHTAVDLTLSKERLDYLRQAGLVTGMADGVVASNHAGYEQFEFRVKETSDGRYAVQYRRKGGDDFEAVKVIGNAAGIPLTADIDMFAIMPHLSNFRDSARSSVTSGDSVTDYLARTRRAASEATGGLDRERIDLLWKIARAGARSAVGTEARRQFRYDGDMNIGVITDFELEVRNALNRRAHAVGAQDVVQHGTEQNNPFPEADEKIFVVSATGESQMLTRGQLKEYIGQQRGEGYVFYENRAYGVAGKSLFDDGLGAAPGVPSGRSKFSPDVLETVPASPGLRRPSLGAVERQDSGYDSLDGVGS

| Compound | Kd (CaM) [µM] | Kd [1] [µM] |
| --- | --- | --- |
| CC[C@H](C)[C@H](NC(=O)CNC(=O)[C@H](Cc1ccc(O)cc1)NC(=O)[C@H](CCCCN)NC(=O)[C@@H](NC(=O)[C@H](CC(C)C)NC(=O)[C@H](CC(C)C)NC(=O)[C@H](CC(N)=O)NC(=O)[C@@H](NC(=O)[C@@H](NC(=O)CNC(=O)[C@H](CCCCN)NC(=O)[C@H](CCC(N)=O)NC(=O)[C@H](CCCCN)NC(=O)[C@H](CCC(=O)O)NC(=O)[C@H](CC(C)C)NC(=O)[C@H](CO)NC(=O)[C@@H](N)CC(N)=O)C(C)C)[C@@H](C)O)[C@@H](C)CC)C(=O)N[C@@H](CCC(=O)O)C(=O)O [helix H peptide] | 8.8 | – |
| CyaA1-412, adenylyl cyclase domain (amino acids 1-412) of CyaA (from UniProt J7QLC0 1-412) (enzyme) | – | 10 |
